Experiments:
Assay type in all cases: in vivo, swine
mature postpartum sows = experiment: Intravulvar deslorelin at estrus detection in mature postpartum sows, AI breeding; conditions: live piglets born per litter, treated versus control
Method: Sows were assigned randomly in blocks of two to either control or to be injected intravulvar with 50 mcg of deslorelin in SAIB at the time of estrus detection for sows first detected in estrus in the a.m. and 12 hours later for those first detected in estrus in the p.m. Treated animals were bred AI upon detected estrus and again 24 hours later if still in estrus. Controls received a saline injection on first detected estrus behavior estrus detection and were bred according to the farm's normal procedures.

postpartum sows [1] = experiment: Single timed deslorelin injection 96 h post-weaning, single timed insemination without estrus detection; conditions: 50 mcg deslorelin in SAIB 96 h post-weaning
Method: Approximately 170 postpartum sows were randomly divided into two equal groups comprised of controls and treated. Following weaning, the controls were detected for estrus and bred following the normal standard operating procedures for the farms on which they resided. The treated sows received a 50 mcg dose of deslorelin in SAIB at 96 hours post-weaning and were bred with a single insemination 28+/−2 hours later with no regard to estrus detection. The sows were examined for pregnancy by ultrasound at 21 days and slaughtered around 28 days post breeding. The entire reproductive tract was removed and corpora lutea and embryos were counted.

postpartum sows [2] = experiment: Litter size after deslorelin treatment in sows at three farm sites; conditions: Tables 3-5, three farm sites, regardless of estrus detection
From the text: Postpartum sows were randomly distributed into three different groups comprised of Controls, Treatment 1, and Treatment 2, with the exception of Site 3, which was divided into two groups, Control and Treatment 2. Control sows were detected for estrus following weaning, and bred following the normal standard operating procedures for the farms on which they resided. Treatment 1 sows were detected for estrus following weaning, and received a 50 mcg dose of deslorelin in the morning when standing and were bred by AI 4 hours later and again at 24+/−2 hours later. Treatment 2 sows received a 50 mcg dose of deslorelin in SAIB at 96 or 120 hours post-weaning and were bred with a single insemination 28+/−2 hours later with no regard to estrus detection.

In the case of `CCNC(=O)[C@@H]1CCCN1C(=O)[C@H](CCCN=C(N)N)NC(=O)[C@H](CC(C)C)NC(=O)[C@@H](Cc1c[nH]c2ccccc12)NC(=O)[C@H](Cc1ccc(O)cc1)NC(=O)[C@H](CO)NC(=O)[C@H](Cc1c[nH]c2ccccc12)NC(=O)[C@H](Cc1cnc[nH]1)NC(=O)[C@@H]1CCC(=O)N1` [Deslorelin, deslorelin], the “Live piglet number, Deslorelin versus Saline sows (greater by)” value (mature postpartum sows) is reported as “Live piglet number 0.6> in Deslorelin versus Saline sows”, the “Pregnancy Rate” value (postpartum sows [1]; single AI 28+/-2 h later, no estrus detection) is reported as 71% and the “Embryo Survival” value (postpartum sows [1]; slaughter around 28 days post breeding) is reported as 64%. For the same compound, the “Sows Pregnant” value (postpartum sows [1]; of 84 in group, single AI 28+/-2 h later, no estrus detection) was 60 and the “litter sizes (in words)” value (postpartum sows [2]) was “normal litter sizes”.
